Results from patent publication US10646570B2, “Induced photodynamic therapy using nanoparticle scintillators as transducers” (UNIVERSITY OF GEORGIA RESEARCH FOUNDATION, INC., priority 2014, dated 2020).

Assay: 1O2 production in solutions, SOSG indicator, X-ray irradiation
Conditions: either with or without X-ray
Experimental: 1 mL of 0.05 mg M-SAO@SiO2/mL was added in a quartz cuvette (equilibrated with air at room temperature) containing 1 μM of SOSG. For controls, SAO, MC540, and water were analyzed. The solutions were irradiated by X-ray (at an irradiance of 1 Sv/h for 20 min, with a 1-min intermission after each 5-min irradiation cycle. The fluorescence signals (ex/em: 504/525 nm) were measured on a Hitachi F-7000 fluorescence spectrophotometer.
There is a significant overlap between the XEOL of SAO and the excitation wavelength of MC540 (FIG. 9A). Therefore, the ability of M-SAO@SiO2 nanoparticles irradiated by X-ray to relay energy in the form of visible photons to MC540 and as a result, producing ^1O2 was investigated. A common ^1O2 indicator, singlet oxygen sensor green (SOSG, Invitrogen) was used to investigate this effect. SOSG is a fluorescent compound which undergoes a structural change in the presence of ^1O2. The process is accompanied by an increase of fluorescence (ex/em: 504/525 nm). Therefore, by measuring the fluorescence change, the ^1O2 generation in solutions or cells can be monitored. Using SOSG, ^1O2 generation with a M-SAO@SiO2 nanoparticle solution (50 μg/mL) under X-ray irradiation was studied (1 Sv/h, FIG. 9B). Compared to the background, the intensity of 525 nm fluorescence was increased by 8, 25, 35, and 45% after 5, 10, 15, and 20 min X-ray irradiation, respectively (FIG. 9B).

SMILES: CCCCN1C(=O)C(=C/C=C/C=C2\Oc3ccccc3N2CCCS(=O)(=O)[O-])C(=O)N(CCCC)C1=S.[Na+] [MC540, merocyanine 540]
- increase in fluorescence (1O2, SOSG): minimal increase in fluorescence
